Test results reported in patent US20230382949A1 (HEPTARES THERAPEUTICS LIMITED, priority 2020, published 2023).
Like-named read-outs stand apart in the source and are kept apart here. Starred links: 1 amine or outer side, 2 acyl side, 3 side chain; linkers in the order of their positions; H or OH if unused. Non-standard residues stand in square brackets, D forms with d. Residues, ends and D or L forms follow the SMILES beside them. *: point of attachment. Ala(piperidin-4-yl) = O=C([C@H](CC1CCN([*:3])CC1)N[*:1])[*:2]; Malonyl(2,2-Me2,histaminyl) = CC(C)(C(=O)NCCc1cnc[nH]1)C(=O)*; Bip = N[C@@H](Cc1ccc(-c2ccccc2)cc1)C(=O)O; dBip = N[C@H](Cc1ccc(-c2ccccc2)cc1)C(=O)O; Oic = O=C(O)[C@@H]1C[C@@H]2CCCC[C@@H]2N1; Phe(4-Br) = N[C@@H](Cc1ccc(Br)cc1)C(=O)O; Phe(4-Cl) = N[C@@H](Cc1ccc(Cl)cc1)C(=O)O; X4 = CC(C)(C(=O)NCCCc1cnc[nH]1)C(=O)*; d2Nal = N[C@H](Cc1ccc2ccccc2c1)C(=O)O; hArg = N=C(N)NCCCC[C@H](N)C(=O)O; 3Pal = N[C@@H](Cc1cccnc1)C(=O)O; dCha = N[C@H](CC1CCCCC1)C(=O)O; Pip = O=C(O)[C@@H]1CCCCN1; Aib = CC(C)(N)C(=O)O

Experiments:
human Apelin receptor [1] = target: T1, human Apelin receptor (Homo sapiens, UniProt P35414); assay: cAMP accumulation assay (HTRF), functional agonism of human Apelin receptors; assay type: cell-based; conditions: for Emax: CHO
T1 sequence (P35414 1-380): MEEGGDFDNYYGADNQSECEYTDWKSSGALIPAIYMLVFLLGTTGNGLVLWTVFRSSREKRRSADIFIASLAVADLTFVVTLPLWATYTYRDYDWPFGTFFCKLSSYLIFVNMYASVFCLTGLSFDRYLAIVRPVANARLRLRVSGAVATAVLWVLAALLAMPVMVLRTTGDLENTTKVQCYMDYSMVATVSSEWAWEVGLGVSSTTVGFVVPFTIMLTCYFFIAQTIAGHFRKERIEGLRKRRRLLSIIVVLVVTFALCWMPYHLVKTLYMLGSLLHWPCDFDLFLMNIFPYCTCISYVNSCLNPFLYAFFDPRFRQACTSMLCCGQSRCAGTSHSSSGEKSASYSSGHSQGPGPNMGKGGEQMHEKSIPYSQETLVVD
Description: cAMP functional assay. cAMP production was quantified using the Homogeneous Time-Resolved Fluorescence (HTRF) cAMP dynamic-2 assay (Cisbio, France).

human Apelin receptor [2] = target: T2, human Apelin receptor (Homo sapiens, UniProt P35414); assay: β-arrestin accumulation assay, functional agonism of human Apelin receptors; assay type: cell-based
T2 construct: host or cells: CHO-K1 cells
Method in brief: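 After 16 h at 37° C., cells were exposed to increasing agonist concentrations in serum-free medium for 90 min at 37° C. Detection reagent added for 60 min in the dark; receptor activation read by fluorescence and EC50 derived from concentration-response curves.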
T2 sequence (P32121 whole entry partner, one chain of several): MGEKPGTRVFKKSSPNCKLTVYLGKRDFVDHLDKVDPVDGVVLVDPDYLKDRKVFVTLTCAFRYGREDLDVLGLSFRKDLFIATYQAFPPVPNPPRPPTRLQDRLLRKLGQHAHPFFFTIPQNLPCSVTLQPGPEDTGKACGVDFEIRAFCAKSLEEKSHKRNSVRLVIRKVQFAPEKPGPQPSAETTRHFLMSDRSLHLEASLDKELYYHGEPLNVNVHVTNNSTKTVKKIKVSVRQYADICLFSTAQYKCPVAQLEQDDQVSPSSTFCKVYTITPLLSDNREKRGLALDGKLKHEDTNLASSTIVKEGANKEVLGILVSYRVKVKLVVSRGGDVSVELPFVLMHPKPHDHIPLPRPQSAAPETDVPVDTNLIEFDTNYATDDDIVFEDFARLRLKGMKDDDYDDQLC

[3] = Human Apelin agonist cAMP assay, CHO cells stably expressing the human Apelin receptor, 3 uM forskolin
[4] = pEC50, Human Apelin agonist cAMP assay, CHO cells stably expressing the human Apelin receptor, 3 uM forskolin

SMILES | Emax (human Apelin receptor [1]; [3]) [%] | EC50 (human Apelin receptor [1]; [4]) [nM] | EC50 (human Apelin receptor [2]) [µM] | Emax (human Apelin receptor [1]; read-out: Emax) [%] | EC50 (human Apelin receptor [1]; read-out: pEC50 (converted)) [nM]
CC(C)C[C@H](NC(=O)[C@@H](CCCNC(=N)N)NC(=O)[C@@H]1CCCN1C(=O)[C@H](CCCCNC(=N)N)NC(=O)[C@H](CCC(N)=O)NC(=O)[C@@H](CCCNC(=N)N)NC(=O)C(C)(C)C(=O)NCCc1c[nH]cn1)C(=O)NC(C)(C)C(=O)N[C@@H](Cc1c[nH]cn1)C(=O)N[C@@H](CC1CCNCC1)C(=O)NCC(=O)N1[C@H](C(=O)N[C@@H](Cc2ccc(-c3ccccc3)cc2)C(=O)N2CCC[C@H]2C(=O)N[C@H](Cc2ccc(-c3ccccc3)cc2)C(=O)O)C[C@@H]2CCCC[C@@H]21 [Example 19] ({Malonyl(2,2-Me2,histaminyl)}-[dR]Q[hArg]P[dR]L[Aib]H[Ala(piperidin-4-yl)]G[Oic][Bip]P[dBip]-OH) | 97 | 20 | > 10 |  | 
CC(C)C[C@H](NC(=O)[C@@H](CCCNC(=N)N)NC(=O)[C@@H]1CCCN1C(=O)[C@H](CCCCNC(=N)N)NC(=O)[C@H](CCC(N)=O)NC(=O)[C@@H](CCCNC(=N)N)NC(=O)C(C)(C)C(=O)NCCc1cnc[nH]1)C(=O)N[C@H](C)C(=O)N[C@@H](Cc1c[nH]cn1)C(=O)N[C@@H](CC1CCNCC1)C(=O)NCC(=O)N1[C@H](C(=O)N[C@@H](Cc2ccc(Br)cc2)C(=O)N2CCC[C@H]2C(=O)N[C@H](Cc2ccc(-c3ccccc3)cc2)C(=O)O)C[C@@H]2CCCC[C@@H]21 [Example 1] ({Malonyl(2,2-Me2,histaminyl)}-[dR]Q[hArg]P[dR]L[dA]H[Ala(piperidin-4-yl)]G[Oic][Phe(4-Br)]P[dBip]-OH) | 27.2 | 15.8 | > 10 |  | 
CC(C)C[C@H](NC(=O)[C@@H](CCCNC(=N)N)NC(=O)[C@@H]1CCCN1C(=O)[C@H](CCCCNC(=N)N)NC(=O)[C@@H](CCC(N)=O)NC(=O)C(C)(C)C(=O)NCCc1cnc[nH]1)C(=O)NC(C)(C)C(=O)N[C@@H](Cc1c[nH]cn1)C(=O)N[C@@H](CC1CCNCC1)C(=O)NCC(=O)N1[C@H](C(=O)N[C@@H](Cc2ccc(Br)cc2)C(=O)N2CCC[C@H]2C(=O)N[C@H](Cc2ccc(-c3ccccc3)cc2)C(=O)O)C[C@@H]2CCCC[C@@H]21 [Example 50] ({Malonyl(2,2-Me2,histaminyl)}-[dQ][hArg]P[dR]L[Aib]H[Ala(piperidin-4-yl)]G[Oic][Phe(4-Br)]P[dBip]-OH) | 56.5 | 39.8 | > 10 |  | 
CC(C)C[C@H](NC(=O)[C@@H](CCCNC(=N)N)NC(=O)[C@@H]1CCCN1C(=O)[C@H](CCCCNC(=N)N)NC(=O)[C@H](CCC(N)=O)NC(=O)[C@@H](CCCNC(=N)N)NC(=O)C(C)(C)C(=O)NCCc1c[nH]cn1)C(=O)NC(C)(C)C(=O)N[C@@H](Cc1c[nH]cn1)C(=O)N[C@@H](CC1CCNCC1)C(=O)NCC(=O)N1[C@H](C(=O)N[C@@H](Cc2ccc(Br)cc2)C(=O)N2CCC[C@H]2C(=O)N[C@H](Cc2ccc3ccccc3c2)C(=O)O)C[C@@H]2CCCC[C@@H]21 [Example 23] ({Malonyl(2,2-Me2,histaminyl)}-[dR]Q[hArg]P[dR]L[Aib]H[Ala(piperidin-4-yl)]G[Oic][Phe(4-Br)]P[d2Nal]-OH) |  |  | > 10 | 43.4 | 25.1
CC(C)C[C@H](NC(=O)[C@@H](CCCNC(=N)N)NC(=O)[C@@H]1CCCN1C(=O)[C@H](CCCCNC(=N)N)NC(=O)[C@H](CCC(N)=O)NC(=O)[C@@H](CCCNC(=N)N)NC(=O)C(C)(C)C(=O)NCCc1c[nH]cn1)C(=O)NC(C)(C)C(=O)N[C@@H](Cc1cccnc1)C(=O)N[C@@H](CC1CCNCC1)C(=O)NCC(=O)N1[C@H](C(=O)N[C@@H](Cc2ccc(Br)cc2)C(=O)N2CCC[C@H]2C(=O)N[C@H](Cc2ccc(-c3ccccc3)cc2)C(=O)O)C[C@@H]2CCCC[C@@H]21 [Example 15] ({Malonyl(2,2-Me2,histaminyl)}-[dR]Q[hArg]P[dR]L[Aib][3Pal][Ala(piperidin-4-yl)]G[Oic][Phe(4-Br)]P[dBip]-OH) | 86.4 | 7.94 | > 10 |  | 
CC(C)C[C@H](NC(=O)[C@@H](CCCNC(=N)N)NC(=O)[C@@H]1CCCN1C(=O)[C@H](CCCCNC(=N)N)NC(=O)[C@H](CCC(N)=O)NC(=O)[C@@H](CCCNC(=N)N)NC(=O)C(C)(C)C(=O)NCCCc1cnc[nH]1)C(=O)NC(C)(C)C(=O)N[C@@H](Cc1c[nH]cn1)C(=O)N[C@@H](CC1CCNCC1)C(=O)NCC(=O)N1[C@H](C(=O)N[C@@H](Cc2ccc(Br)cc2)C(=O)N2CCC[C@H]2C(=O)N[C@H](Cc2ccc(-c3ccccc3)cc2)C(=O)O)C[C@@H]2CCCC[C@@H]21 [Example 36] (X4-[dR]Q[hArg]P[dR]L[Aib]H[Ala(piperidin-4-yl)]G[Oic][Phe(4-Br)]P[dBip]-OH) | 55.7 | 5.01 | > 100 |  | 
CC(C)C[C@H](NC(=O)[C@H](CCCNC(=N)N)NC(=O)[C@@H]1CCCN1C(=O)[C@@H](CCCNC(=N)N)NC(=O)[C@H](CCC(N)=O)NC(=O)C(C)(C)C(=O)NCCc1cnc[nH]1)C(=O)NC(C)(C)C(=O)N[C@@H](Cc1c[nH]cn1)C(=O)N[C@@H](CC1CCNCC1)C(=O)NCC(=O)N1[C@H](C(=O)N[C@@H](Cc2ccc(Br)cc2)C(=O)N2CCC[C@H]2C(=O)N[C@H](CC2CCCCC2)C(=O)O)C[C@@H]2CCCC[C@@H]21 [Example 43] ({Malonyl(2,2-Me2,histaminyl)}-Q[dR]PRL[Aib]H[Ala(piperidin-4-yl)]G[Oic][Phe(4-Br)]P[dCha]-OH) |  |  | > 10 | 95.7 | 100
CC(C)C[C@H](NC(=O)[C@@H](CCCNC(=N)N)NC(=O)[C@@H]1CCCN1C(=O)[C@H](CCCCNC(=N)N)NC(=O)[C@H](CCC(N)=O)NC(=O)[C@@H](CCCNC(=N)N)NC(=O)C(C)(C)C(=O)NCCc1c[nH]cn1)C(=O)NC(C)(C)C(=O)N[C@@H](Cc1c[nH]cn1)C(=O)N[C@@H](CC1CCNCC1)C(=O)NCC(=O)N1[C@H](C(=O)N[C@@H](Cc2ccc(Cl)cc2)C(=O)N2CCC[C@H]2C(=O)N[C@H](Cc2ccc(-c3ccccc3)cc2)C(=O)O)C[C@@H]2CCCC[C@@H]21 [Example 17] ({Malonyl(2,2-Me2,histaminyl)}-[dR]Q[hArg]P[dR]L[Aib]H[Ala(piperidin-4-yl)]G[Oic][Phe(4-Cl)]P[dBip]-OH) | 78.8 | 25.1 | > 10 |  | 
CC(C)C[C@H](NC(=O)[C@@H](CCCNC(=N)N)NC(=O)[C@@H]1CCCCN1C(=O)[C@H](CCCNC(=N)N)NC(=O)[C@H](CCC(N)=O)NC(=O)[C@@H](CCCNC(=N)N)NC(=O)C(C)(C)C(=O)NCCc1cnc[nH]1)C(=O)NC(C)(C)C(=O)N[C@@H](Cc1c[nH]cn1)C(=O)N[C@@H](CC1CCNCC1)C(=O)NCC(=O)N1[C@H](C(=O)N[C@@H](Cc2ccc(Br)cc2)C(=O)N2CCC[C@H]2C(=O)N[C@H](Cc2ccc(-c3ccccc3)cc2)C(=O)O)C[C@@H]2CCCC[C@@H]21 [Example 30] ({Malonyl(2,2-Me2,histaminyl)}-[dR]QR[Pip][dR]L[Aib]H[Ala(piperidin-4-yl)]G[Oic][Phe(4-Br)]P[dBip]-OH) | 106 | 5.01 | > 10 |  | 
CC(C)C[C@H](NC(=O)[C@H](CCCNC(=N)N)NC(=O)[C@@H]1CCCN1C(=O)[C@@H](CCCNC(=N)N)NC(=O)[C@H](CCC(N)=O)NC(=O)[C@@H](CCCNC(=N)N)NC(=O)C(C)(C)C(=O)NCCc1c[nH]cn1)C(=O)NC(C)(C)C(=O)N[C@@H](Cc1c[nH]cn1)C(=O)N[C@@H](CC1CCNCC1)C(=O)NCC(=O)N1[C@H](C(=O)N[C@@H](Cc2ccc(Br)cc2)C(=O)N2CCC[C@H]2C(=O)N[C@H](Cc2ccc(-c3ccccc3)cc2)C(=O)O)C[C@@H]2CCCC[C@@H]21 [Example 25] ({Malonyl(2,2-Me2,histaminyl)}-[dR]Q[dR]PRL[Aib]H[Ala(piperidin-4-yl)]G[Oic][Phe(4-Br)]P[dBip]-OH) | 92.7 | 15.8 | > 10 |  | 
